Measurements published in patent US20240108740A1, “THERAPEUTIC COMPOSITIONS INCLUDING SPN10 AND USES THEREOF” (Stealth BioTherapeutics Inc., priority 2022, published 2024).
Residues, ends and D or L forms follow the SMILES beside them.

What was measured:
[1] = test system: Sprague Dawley rats; assay: Example 49: progression of tissue damage following a burn; details: rat, in vivo
Protocol: Sprague Dawley rats will be randomized into the following groups; sham-burn (SB), burn with saline treatment (B), burn with peptide conjugate-treatment (BP), burn with aromatic-cationic peptides (BP2), burn with SPN10(s) (BP3), and burn with SPN10(s)+aromatic-cationic peptides (BP4). Band BP, BP2, BP3 and BP4 animals will receive a 30% total body surface area full thickness burns by immersing the dorsal body into 100° C. water for 12 seconds with immediate fluid resuscitation. […] Wound re-epithelialization, contraction, and depth will be assessed via gross morphology and histologically over a period of 21 days. […]
Apoptosis of hair follicles of the skin will be measured using TUNEL labeling and activated caspase-3 immunostaining using skin samples obtained between 0 and 48 hours post-burn. Quantification of TUNEL and caspase-3 staining will be done on digitally acquired images at high power. The number of positive cells per high power field will be determined, and compared among the groups.
[…] mapping will be performed using Doppler imaging to assess wound blood flow. Two hours post-burn, the dorsum of the animal will be imaged on a scanning laser Doppler apparatus to quantify the superficial blood flow distribution in the skin within and outside of the burn area. For […] mapping, 100 male Sprague-Dawley rats will be used. […]

[2] = test system: Isolated guinea pig hearts; assay: Example 6: isolated hearts, 18 hours cold ischemic storage and warm reperfusion
Protocol: Isolated guinea pig hearts will be perfused with St. Thomas solution alone or St. Thomas solution containing peptide conjugates (1-100 nM), aromatic-cationic peptides (e.g., an equivalent molar dose of aromatic-cationic peptide based on the concentration of the aromatic-cationic peptide administered in the peptide conjugate treatment group), SPN10(s) (e.g., an equivalent molar dose of SPN10 based on the concentration of SPN10 administered in the peptide conjugate treatment group), or SPN10(s) in combination with aromatic-cationic peptides (e.g., an equivalent molar dose of SPN10 based on the concentration of SPN10 administered in the peptide conjugate treatment group and an equivalent molar dose of aromatic-cationic peptide based on the concentration of aromatic-cationic peptide administered in the peptide conjugate treatment group) for 3 minutes and then stored in the same solution at 4° C. for 18 hours. After ischemic storage, hearts will be re-perfused with 34° C. Krebs-Henseleit solution for 90 min. Hearts freshly isolated from guinea pigs will be used as controls.
The hearts will be fixed in paraffin and sliced for immunostaining with an anti-CD36 rabbit polyclonal antibody. It is anticipated that the sections from a representative heart stored in St. Thomas solution for 18 hours at 4° C. will show increased CD36 staining compared to freshly isolated controls.
It is also anticipated that there will be a decrease in lipid peroxidation in the hearts treated with peptide conjugates, aromatic-cationic peptides, or SPN10(s) (with or without aromatic-cationic peptides). […]

N=C(N)NCCC[C@H](NC(=O)[C@@H](N)Cc1c[nH]c2ccccc12)C(=O)N[C@@H](Cc1c[nH]c2ccccc12)C(=O)N[C@@H](CCCCN)C(N)=O [SPN10, H-L-Trp-L-Arg-L-Trp-L-Lys-NH2] (H-WRWK-NH2)
burn-induced apoptosis and blood flow [1]: reduce burn-induced apoptosis and blood flow
wound healing and progression of burn injuries [1]: accelerate wound healing and attenuate the progression of burn injuries
coronary blood flow after cold ischemic storage and warm reperfusion [2]: significant improvement of coronary blood flow
HNE staining in stored hearts ([2]; 18 hours cold ischemia, 90 minutes reperfusion): reduced
CD36 staining in stored hearts ([2]; St. Thomas solution, 18 hours, 4° C.): significantly reduced
